Results as given in patent US10961222B2, “Chemical compound of isocitrate dehydrogenase inhibitor, and application thereof” (NANJING SANHOME PHARMACEUTICAL CO., LTD., priority 2016, dated 2021).
pIC50: −log10 of the molar value.

Assays:
[1] = tested on: U87-MG (IDH2-R140Q) subcutaneous xenograft tumor; assay: Subcutaneous xenograft tumor caused by U87-MG (IDH2-R140Q) mutant cells in vivo: intratumor 2-HG; parameters: species or system BALB/c nude mice; conditions: intragastric, 10 days, mean, relative to U87-MG (IDH2-R140Q) control group
Description: 1.2 Animals: BALB/c nude mice, 6-7 weeks old, female, 18-22 g, purchased from Nanjing Jinlaichang Company.
U87-MG (IDH2-R140Q) cells and U87-MG cells (wild type) were expanded, and cells in logarithmic growth phase were used for tumor inoculation in vivo. 16 mice were inoculated subcutaneously into the right lower back of the body at an amount of 2×10^6 cells/mouse (the volume ratio of cell suspension to Matrigel was 1:0.8).
The non-mutation control group was nude mice inoculated with U87-MG cells, and the test compound groups and vehicle control group were nude mice inoculated with U87-MG (IDH2-R140Q) cells.
Each group was intragastrically administered with a corresponding concentration of the compound solution, the administration volume was 100 μL/10 g body weight, and the control group was administered the same volume of blank vehicle.
After 10 days of administration, the mice were sacrificed. The tumors were exfoliated, homogenized, and the 2-HG content in the tumor was examined.
The 2-HG concentration in the homogenate of each animal tumor in each group was determined by LC-MS/MS. The percentage (2-HG %) was calculated; the calculation formula is as follows 2-HG %=(2-HG concentration of administration group tumor−2-HG concentration of U87-MG control group tumor)/(2-HG concentration of U87−MG(IDH2-R140Q) control group tumor−2-HG concentration of U87-MG control group tumor)×100%.

[2] = molecular target: T1, U87-MG cell line of overexpressed mutant IDH2 (R140Q) (Homo sapiens, UniProt P48735, R140Q); assay: Cell activity in vitro: 2-HG in culture supernatant of U87-MG (IDH2-R140Q) cells by LC-MS/MS; format: cell-based
T1 construct: expressed in transfected cells
T1 sequence (P48735 40-452 R140Q): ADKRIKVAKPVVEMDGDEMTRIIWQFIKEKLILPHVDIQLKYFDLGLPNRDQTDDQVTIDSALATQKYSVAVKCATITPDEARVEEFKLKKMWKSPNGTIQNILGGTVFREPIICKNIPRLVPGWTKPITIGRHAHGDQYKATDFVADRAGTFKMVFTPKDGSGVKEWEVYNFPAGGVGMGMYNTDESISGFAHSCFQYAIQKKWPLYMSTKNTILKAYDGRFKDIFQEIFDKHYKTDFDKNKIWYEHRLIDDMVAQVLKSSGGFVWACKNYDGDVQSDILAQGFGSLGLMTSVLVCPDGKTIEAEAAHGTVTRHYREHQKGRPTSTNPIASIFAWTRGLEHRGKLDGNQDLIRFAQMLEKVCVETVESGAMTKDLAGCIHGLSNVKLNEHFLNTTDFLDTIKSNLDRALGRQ
Protocol: 1.2 Cells: human glioblastoma cell line U87-MG, purchased from the American Type Culture Collection (ATCC);
Cell recovery: U87-MG (IDH2-R140Q) cells and U87-MG cells were put into a 37° C. water bath, then transferred to 15 mL of pre-warmed medium, centrifuged at 1000 rpm for 5 minutes, and the medium was discarded. The cells were resuspended in 15 mL of fresh medium, transferred to a T75 flask and cultured in a 37° C. incubator with 5% CO2. After 24 hours, the medium was changed to fresh medium.
Cell passage: The above-mentioned recovered cells were transferred to a 50 mL sterile centrifuge tube, centrifuged at 1000 rpm for 5 minutes, and the medium was discarded. The cells were resuspended evenly and counted. The cell density was adjusted appropriately in a 15 mL fresh medium, and then added to T75 culture flask. The culture flask was incubated in an incubator with 5% CO2 at 37° C.
After cells grown to a relatively high density in the culture dish, the cells were trypsinized, resuspended in medium (MEM+10% FBS), and counted. After adjusting the cell concentration, the resuspended cells were seeded in a 96-well plate at 5×10^3 cells per well. After inoculation, the cells were cultured for 24 hours until the cells adhered. The medium were sucked out, and the medium containing gradient concentration of compound was added, 100 μL per well. The cells were further cultured for 72 hours. The s 20 μL of upernatant was taken and put into a 2 mL 96-well sample-processing plate. 480 μL of dilution solution was added and shaken for mixing, and then centrifuged at 4500 rpm for 5 minutes. 200 μL of supernatant was transferred for LC-MS/MS injection analysis.
Column: Shim-pack XR-ODS 30L*2.0; mobile phase: acetonitrile-0.2% ammonia, 5 mM ammonium acetate aqueous solution; column temperature: 30° C.; flow rate: 0.4 mL/min; gradient elution conditions are as follows: […]
Atmospheric […] chemical ionization (APCI) was used. Source parameters was set as follows: IonSpray Voltage/IS-4500V; auxiliary gas 1 (Ion Source Gas 1/GS 1, N2), 55Arb; auxiliary gas 2 (Ion Source Gas 2, N2), 55Arb; auxiliary gas heating temperature (Temperature/TEM), 500° C.; curtain gas/CUR, 25Arb; collision gas/CAD, N2, 8 Pa.
Multi-ion reaction monitoring (MRM) in negative ion mode (Negative) was used. […] The internal standard (IS) MRM parameters: parent ion (Q 1 Mass), 178.0 Da; daughter ion (Q3 Mass), 149.0 Da; Decluster Potential (DP), −51V; collision voltage (Collision Energy/CE), −17 eV
By determining the 2-HG content in the cell culture supernatant of each well using LC-MS/MS, the mutant enzyme activity (2-HG remaining compared to untreated %) was calculated. The calculation formula: 2-HG remaining compared to untreated %=(Measured 2-HG level—U87-MG control 2-HG level)/(Untreated 2-HG level—U87-MG control 2-HG level)×100. […] Data were processed by GraphPad Prism v5.0 software and fitted to obtain IC50.

For `CC(C)(O)CNc1nc(Nc2ccnc(C(F)(F)F)c2)nc(-c2cccc(C(F)(F)F)n2)n1` [AG-221, 2-methyl-1-(4-(6-(trifluoromethyl)pyridin-2-yl)-6-(2-(trifluoromethyl)pyridin-4-ylamino)-1,3,5-triazin-2ylamino)propan-2-ol, reference compound], the “Intratumor 2-HG(%) after 10 days of administration” value (from here on “Intratumor 2-HG(%) after 10 days”) ([1]; 6.25 mg/kg) was 58%, the “Intratumor 2-HG(%) after 10 days” value ([1]; 12.5 mg/kg) was 9% and the “Intratumor 2-HG(%) after 10 days” value ([1]; 25 mg/kg) was −4%. For the same compound, the pIC50 [2] was 7.52.
